The results in this text go back to the supplement of paper PMC11061612.

Test in all cases: Bliss excess, mean over the matrix (fraction); higher = more synergy
Assay [1] concerns OC-314 (Ovarian Carcinoma). The essentials:
(§1)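 Bliss excess equals the observed combination effect minus the expected value EA + EB − EA·EB, where EA and EB are the effects of each agent alone. Combination Emax is the second-highest inhibition within the matrix. Inhibition was scaled from CellTiter-Glo 2.0 luminescence, with 0 set by vehicle wells and 1 by blank wells, after 72 hours of two-drug dosing of cells plated in 1536-well plates.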

Assay [2] deals with KYSE-410 (Esophageal Squamous Cell Carcinoma). The essentials: as §1
The test system of assay [3] is NCI-H747 (Colorectal Carcinoma). The gist of the method: as §1
Assay [4] relates to LB771-HNC (Head and Neck Carcinoma). The gist of the method: as §1
In assay [5] the test system is SW1271 (Small Cell Lung Carcinoma). The gist of the method:
as §1

Assay [6] concerns LU-139 (Small Cell Lung Carcinoma). The gist of the method:
as §1

The test system of assay [7] is MHH-PREB-1 (B-Cell Non-Hodgkin's Lymphoma). The gist of the method: as §1
In assay [8] the test system is SW626 (Colorectal Carcinoma). The essentials:
as §1

For assay [9], the system named is HCC-15 (Squamous Cell Lung Carcinoma). The gist of the method:
as §1

The test system of another assay is NB14 (Neuroblastoma). The essentials: as §1
Assay [10] deals with CTB-1 (B-Cell Non-Hodgkin's Lymphoma). The gist of the method:
as §1

The next assay has as its system NCI-H28 (Mesothelioma). The gist of the method: as §1
Assay [11] relates to 639-V (Bladder Carcinoma). The essentials:
as §1

The test system of assay [12] is RKO (Colorectal Carcinoma). The essentials: as §1
Assay [13] concerns LoVo (Colorectal Carcinoma). The gist of the method:
as §1

Assay [14] has as its system EN (Endometrial Carcinoma). The essentials: as §1
The test system of another assay is NCI-H2795 (Mesothelioma). The essentials: as §1
A further assay deals with SH-4 (Melanoma). The gist of the method:
as §1

Assay [15] relates to UMC-11 (Other Solid Carcinomas). The essentials:
as §1

Assay [16] relates to TE-4 (Esophageal Squamous Cell Carcinoma). The gist of the method:
as §1

SMILES strings stand for the structures.

On to `CN(CCO)CC[C@H](CSc1ccccc1)Nc1ccc(S(=O)(=O)NC(=O)c2ccc(N3CCC([C@@H](O)c4ccccc4-c4ccc(Cl)cc4)CC3)cc2)cc1S(=O)(=O)C(F)(F)F` [AZD4320] + Cc1cc2ncnn2cc1Nc1ncc2c(n1)n(C1CCOCC1)c(=O)n2C [AZD7648] (first compound max 1 µM, 7x7, partner max 10 µM), for which the Bliss excess in [1] was -0.0394; in assay [2], -0.0406; in assay [3] it was -0.0192; in assay [4], -0.0395; in [5] it was -0.0386; in assay [6] it was 0.0151. Further, the Bliss excess in assay [7] is -0.0041; in assay [8] it was -0.0526; in assay [9] it was -0.0214; in the assay with NB14 (Neuroblastoma), 0.0356; in [10], -0.0401; in the assay on NCI-H28 (Mesothelioma) it was -0.055. Also, the Bliss excess in assay [11] is -0.0244; in assay [12] it was -0.0148; in assay [13], 0.0195; in assay [14], -0.01; in the assay with NCI-H2795 (Mesothelioma), -0.0395; in the assay on SH-4 (Melanoma), -0.0459. Moreover, the Bliss excess in assay [15] was 0.0377; in [16], -0.0202.
For the compound `COc1cccc(OCCCN)c1-c1cc(Nc2cnc(C#N)cn2)n[nH]1` [Prexasertib] + C[C@@H]1COCCN1C2=NC(=NC(=C2)C3(CC3)[S@](=N)(=O)C)C4=C5C=CNC5=NC=C4 [AZD6738] (first compound max 1 µM, 7x7, partner max 10 µM), the Bliss excess in [1] was 0.0344; in assay [2], -0.0548; in assay [3], -0.0294; in [4], -0.0024; in assay [5], -0.0337; in assay [6], 0.0339. Further, the Bliss excess in assay [7] was -0.0643; in assay [8], 0.007; in assay [9], 0.0058; in the assay on NB14 (Neuroblastoma), 0.0092; in assay [10], -0.091; in the assay with NCI-H28 (Mesothelioma) it was -0.0062. Moreover, the Bliss excess in assay [11] was 0.0838; in [12], -0.0176; in assay [13] it was -0.0296; in [14], -0.0416; in the assay with NCI-H2795 (Mesothelioma), 0.0361; in the assay on SH-4 (Melanoma), -0.0786. Also, the Bliss excess is -0.0213 in assay [15] and 0.0058 in [16].
In the case of `CN(CCO)CC[C@H](CSc1ccccc1)Nc1ccc(S(=O)(=O)NC(=O)c2ccc(N3CCC([C@@H](O)c4ccccc4-c4ccc(Cl)cc4)CC3)cc2)cc1S(=O)(=O)C(F)(F)F` [AZD4320] + C=CCn1c(=O)c2cnc(Nc3ccc(N4CCN(C)CC4)cc3)nc2n1-c1cccc(C(C)(C)O)n1 [AZD1775] (first compound max 1 µM, partner max 1 µM), the Bliss excess in [1] is -0.0187; in [2] it was -0.0313; in [3], -0.0238; in assay [4], -0.0049; in assay [5], 0.0152; in assay [6] it was 0.0145. The Bliss excess is -0.0454 in assay [7]; -0.0124 in [8]; 0.0202 in assay [9]; 0.0415 in the assay with NB14 (Neuroblastoma); -0.0309 in assay [10]; 0.0115 in the assay on NCI-H28 (Mesothelioma). Also, the Bliss excess in assay [11] was -0.0437; in [12], -0.0003; in assay [13], 0.0093; in assay [14], -0.0337; in the assay on NCI-H2795 (Mesothelioma), -0.0225; in the assay on SH-4 (Melanoma) it was 0.0103. Further, the Bliss excess in [15] was -0.0122; in [16] it was -0.0044.
On to `Cc1cc2ncnn2cc1Nc1ncc2c(n1)n(C1CCOCC1)c(=O)n2C` [AZD7648] + CN(C)CCCOc1ccc(-c2ccc3ncc4c(c3c2)n(C2CCOCC2)c(=O)n4C)cn1 [AZD0156] (first compound max 10 µM, 7x7, partner max 1 µM), for which the Bliss excess was 0.0334 in assay [1]; -0.0059 in assay [2]; 0.0253 in [3]; 0.0059 in assay [4]; 0.0567 in assay [5]; -0.0306 in [6]. Moreover, the Bliss excess is 0.118 in assay [7]; 0.0225 in assay [8]; 0.0013 in assay [9]; 0.0053 in the assay with NB14 (Neuroblastoma); -0.0485 in assay [10]; -0.0195 in the assay on NCI-H28 (Mesothelioma). The Bliss excess in assay [11] was 0.0192; in assay [12] it was 0.0317; in [13], -0.0469; in assay [14], -0.0396; in the assay with NCI-H2795 (Mesothelioma), -0.025; in the assay with SH-4 (Melanoma), 0.0077. Further, the Bliss excess is 0.0196 in assay [15] and 0.0139 in assay [16].
On to `CN(CCO)CC[C@H](CSc1ccccc1)Nc1ccc(S(=O)(=O)NC(=O)c2ccc(N3CCC([C@@H](O)c4ccccc4-c4ccc(Cl)cc4)CC3)cc2)cc1S(=O)(=O)C(F)(F)F` [AZD4320] + C[C@@H]1COCCN1C2=NC(=NC(=C2)C3(CC3)[S@](=N)(=O)C)C4=C5C=CNC5=NC=C4 [AZD6738] (first compound max 1 µM, 7x7, partner max 10 µM), for which the Bliss excess in assay [1] is -0.0066; in assay [2], -0.0723; in assay [3], -0.0649; in assay [4] it was 0.0047; in assay [5] it was -0.0085; in assay [6], -0.0613. The Bliss excess is -0.039 in assay [7]; -0.0606 in [8]; -0.0124 in [9]; -0.0372 with NB14 (Neuroblastoma); -0.0791 in assay [10]; -0.0284 with NCI-H28 (Mesothelioma). Moreover, the Bliss excess is -0.0022 in assay [11]; -0.0309 in [12]; -0.0355 in assay [13]; -0.056 in assay [14]; 0.0173 in the assay on NCI-H2795 (Mesothelioma); -0.0411 with SH-4 (Melanoma). Also, the Bliss excess in [15] is -0.028; in assay [16], 0.028.
In the case of `CN(CCO)CC[C@H](CSc1ccccc1)Nc1ccc(S(=O)(=O)NC(=O)c2ccc(N3CCC([C@@H](O)c4ccccc4-c4ccc(Cl)cc4)CC3)cc2)cc1S(=O)(=O)C(F)(F)F` [AZD4320] + C1CN(CCC1(C(=O)N[C@@H](CCO)C2=CC=C(C=C2)Cl)N)C3=NC=NC4=C3C=CN4 [Capivasertib] (first compound max 1 µM, 7x7, partner max 3 µM), the Bliss excess in assay [1] was -0.0007; in [2], -0.0686; in assay [3], -0.0682; in assay [4] it was -0.0148; in assay [5], -0.0606; in [6], -0.0328. The Bliss excess in assay [7] was -0.029; in [8] it was -0.0682; in [9], -0.0082; in the assay on NB14 (Neuroblastoma) it was 0.0472; in assay [10], -0.0277; in the assay on NCI-H28 (Mesothelioma), -0.0821. For the same compound, the Bliss excess in assay [11] was -0.0503; in assay [12], -0.0191; in [13], -0.071; in [14], -0.0343; in the assay on NCI-H2795 (Mesothelioma) it was -0.0572; in the assay on SH-4 (Melanoma) it was -0.0462. Moreover, the Bliss excess in assay [15] is -0.0908; in assay [16], -0.0317.
